Our source for the melting point values is a melting point compilation (Tetko et al.; mined from patent text by program, amines drawn as free bases though some values may be those of a salt).

The structures appear in SMILES notation.

What is called melting point is the temperature, or range, at which the solid turns liquid. In turn, `COC(=O)C1CCCN1S(=O)(=O)c1ccc(Cl)c(COc2cccn3c(C(C)=O)c(C)nc23)c1Cl` (configuration not stated) showed a melting point of 178 °C.

Compound `O=C(OCCBr)N1CCCSC1=C[N+](=O)[O-]` registered a melting point of 79 to 81 °C.

Consider `COCCOc1cc(C)nc(NC(=O)NS(=O)(=O)c2ccccc2Cl)n1`, for which the melting point fell in the range of 130 to 140 °C.

Consider `O=C1C2CCCN2c2ccccc2N1Cc1ccccc1` (configuration not stated), for which the melting point lay within 156 to 157 °C.

In turn, `CS(=O)(=O)Nc1cc(C(O)CNCCCCCCOCC/C=C/c2ccc(F)cc2)ccc1O` (configuration not stated) returned a melting point of 79 to 80 °C.

For the compound `O=C(O)CCCNc1ccc2c(NC(=O)CC3CCCCC3)c(Cl)ccc2n1`, the melting point lay in the range of 248 to 250 °C.

For the compound `CCc1c(-c2ccccc2)n(-c2ccccc2Cl)c(-c2ccccc2)cc1=O`, the melting point lay in the range of 165 to 166 °C.

Turning to `COc1ccc(C(=O)OC(=C2C(=O)N(C(N)=O)c3cc(Cl)c(F)cc32)c2cccs2)cc1`, the melting point is 220 to 221 °C.

The compound `CCN(CC)CCOC(=O)C1=C(C)NC(C)=C(c2nnco2)C1c1cccc(Cl)c1Cl` (configuration not stated) had a melting point of 142 to 144 °C.

In turn, `O=C(O)Cc1ccc2c(c1)CC(CNS(=O)(=O)c1ccc3ccccc3c1)C2` (configuration not stated) yielded a melting point of 180 to 182 °C.

`COc1ccc(CCNC(=O)C(F)(F)F)cc1NS(C)(=O)=O` came in with a melting point of 129 to 130 °C.

As for `CCCCCCCCCCCCCCOc1ccc(COC(=O)N(Cc2ccccn2)C(C)=O)cc1`, the melting point was in the range of 52 to 53 °C.

The compound `CC(=O)CCCc1c[nH]c2ccccc12` came in with a melting point of 89 to 90 °C.

Turning to `O=[N+]([O-])c1cnn2c1-c1ccccc1NC2`, the melting point was 156 to 157 °C.

In turn, `OC1CSC(Oc2ccc(-c3cccnc3)nc2Cl)C(O)C1O` (configuration not stated) yielded a melting point of 180 °C.

On to `CCn1c(=O)c2[nH]c(/C=C/c3cccc(Cl)c3)nc2n(CC)c1=O`, for which the melting point was more than 280 °C.

With `O=C(O)c1cnn2c(C(F)(F)F)cc(-c3ccc(C(F)(F)F)cc3)cc12`, the melting point was more than 250 °C.

`COc1nc2cccnc2n1-c1ccc(-c2nc(-c3nccs3)cn2-c2ccc(C)nc2)cc1`: the melting point lay in the range of 190 to 192 °C.

With `COc1ccc(N2CCN(c3ccc(-n4cnn(C)c4=O)cc3)CC2)cc1`, the melting point was 246 °C.

The compound `COc1ccc(Cl)cc1C1(O)C(=O)Nc2ccc(C(F)(F)F)cc21` (configuration not stated) displayed a melting point of 218 to 220 °C.

For `CCc1oc2ccccc2c1C(=O)c1cc(C(C)C)c(OS(=O)(=O)c2ccc(C(=O)O)c(O)c2)c(C(C)C)c1`, the melting point fell in the range of 200 to 201 °C.

The compound `OCCc1cnc(Nc2n[nH]c3ccc(-c4ncccc4Cl)cc23)s1` came in with a melting point of 206 to 208 °C.

Turning to `O=C(O)CCC(=O)CCS`, the melting point was 40 to 42 °C.

Take `O=C(N[C@H](Cc1cccc(OC(F)(F)C(F)F)c1)[C@@H](O)c1ccc(F)nc1)c1cccc2c1C=CCCC2` (racemic): the melting point was in the range of 140 to 142 °C.

In turn, `N#Cc1ccnc(N2CCOCC2)c1` returned a melting point of 135 to 136 °C.

As to `CC(C(=O)N(C)C)n1ccc(-c2ccc(Cl)cc2)n1` (configuration not stated), the melting point fell in the range of 95 to 99 °C.

`COc1ccc(NC(=O)c2cc([N+](=O)[O-])ccc2NC(=O)CF)c(C)c1`: the melting point lay in the range of 237 to 239 °C.

`O=C(c1ccc(-c2cnc3c(c2)N(Cc2cc(Cl)ccc2Cl)C(=O)CN3)cc1)N1CCC(N2CCCC2)CC1` had a melting point of more than 200 °C.

`COc1cc(-c2nn(Cc3ccccc3)c(=O)c3ccccc23)ccc1O` had a melting point of 197 to 200 °C.

On to `Cc1[nH]c(Br)c(C)c1-c1ccnc(Nc2ccc(F)cc2)n1`, for which the melting point fell in the range of 181 to 183 °C.

In the case of `Cc1ccc(NC(=O)NCc2ccc3c(c2)CN(C2CCC(=O)NC2=O)C3=O)cc1` (configuration not stated), the melting point lay in the range of 267 to 269 °C.

Regarding `COC(=O)CSc1cccc(Br)n1`, the melting point was in the range of 32 to 34 °C.

As to `COc1ccc(-c2cnc(C)[nH]c2=O)cc1OC`, the melting point fell in the range of 187 to 188 °C.

The compound `O=c1cc(CCCl)c2ccccc2[nH]1` registered a melting point of 186 to 187 °C.

Turning to `Cc1cccc2c1S(=O)(=O)N=C2C1=C(O)C(C(C)(C)C)N(Cc2ccc(F)cc2)C1=O` (configuration not stated), the melting point was more than 250 °C.

On to `Cc1ccc(-n2ccc(=O)c(-c3ccnn3-c3ccccc3)n2)cc1`, for which the melting point fell in the range of 182 to 183 °C.

In turn, `Nc1ncccc1OCc1ccc(F)cc1F` gave a melting point of 105 to 107 °C.

In turn, `CC(C)(C)c1cc(CCc2ccccc2NC(=O)NC2CCCC2)cc(C(C)(C)C)c1O` registered a melting point of 186 to 187 °C.

As to `COc1ccc(C2(c3ccc(OC(F)F)cc3)N=C(N)N(C)C2=O)cc1C#N` (configuration not stated), the melting point is 104 to 105 °C.

`CCOC(=O)CCc1ccc2[nH]c(-c3cccnc3)c(C)c2c1` came in with a melting point of more than 275 °C.

Turning to `CCCCCCCCCCCCCCCCCC(=O)ON1C(=O)c2ccccc2C1=O`, the melting point was 76 to 80 °C.

Consider `C=CCN1CCc2nc(NCC)nc(-c3ccc(Cl)cc3)c2C1`, for which the melting point lay in the range of 104 to 106 °C.

`Cc1nn(C)c2cnc(-c3ccc(C(F)(F)F)cc3)nc12` gave a melting point of 286 to 289 °C.

`Cc1sc2nc(-c3ccccc3)c(-c3ccc(S(C)(=O)=O)cc3)n2c1C` registered a melting point of 193 to 194 °C.

For the compound `COc1nc(Cl)nc2c1ncn2C1CC(O)C(CO)O1` (configuration not stated), the melting point lay within 141 to 142 °C.

In the case of `CCOC(=O)CCCCCN1CCC[C@@H](NCc2ccccc2OC)[C@H]1c1ccccc1` (racemic), the melting point was in the range of 80 to 95 °C.

For `CCC(=O)c1c(-c2cc(C)c(O)c(C)c2)c(C)n2c1-c1cc(OC)c(OC)cc1CC2`, the melting point fell in the range of 188 to 190 °C.

For the compound `COc1ccc2cc3c(Br)nn(C(C)C)c3nc2c1`, the melting point is 130 to 131 °C.

In the case of `COC(=O)C1=C(Cl)/C(=N/OS(=O)(=O)c2ccc(C)cc2)CC(c2ccc(Cl)c(OC)c2F)N1` (configuration not stated), the melting point lay within 62 to 64 °C.

In turn, `Nc1nc(OC(F)(F)F)cc(C(F)(F)F)n1` returned a melting point of 47 to 49 °C.

`Clc1ccc(-c2ccc(C3=NC[C@H](c4ccccc4)O3)cc2)cc1` yielded a melting point of 122 °C.

With `COc1ccc(CNn2c(=O)ccc3cnc(SC)nc32)cc1Cl`, the melting point lay in the range of 189 to 190 °C.

As for `OC[C@@H]1CCc2ccc3ncccc3c2O1`, the melting point worked out at 128 °C.

`COC(=O)CNCc1ccc(OCc2ccccc2)cc1` displayed a melting point of 57 to 58 °C.

Take `CC(NC(=O)C1C(O)N(Cc2ccccc2)C(=O)N1Cc1ccccc1)c1cccs1` (configuration not stated): the melting point was in the range of 108 to 129 °C.

On to `COc1ccc(S(=O)(=O)N(Cc2cccnc2)c2c(C(=O)O)cnc3cc(C)nn23)cc1`, for which the melting point is 249 to 251 °C.

In the case of `COC(=O)C(=CN(C)C)N(C)c1nc(-c2ccc(Cl)cc2)cs1`, the melting point lay within 177 to 178 °C.

`c1ccc2[nH]c(CCC(CCCc3[nH]c4ccccc4c3CCN3CCCCC3)CCN3CCCCC3)cc2c1` (configuration not stated): the melting point was 79 to 83 °C.

As for `O=C(NC12CC3CC(CC(C3)C1)C2)c1ncon1`, the melting point lay in the range of 141 to 142 °C.

Compound `Cc1ccccc1Cn1c(=O)[nH]c2cc(Cl)cc(Cl)c2c1=O` returned a melting point of 274 to 276 °C.

Consider `CCCCNC(=O)[C@@H](C[C@H](O)[C@H](CC1CCCCC1)NC(=O)[C@H](Cc1cscn1)NC(=O)[C@@H](CC(=O)N1CCOCC1)Cc1ccccc1)C(C)(C)O`, for which the melting point was in the range of 92 to 95 °C.

For the compound `CC1(C2CCC3C4CC=C5CC(O)CC(O)C5(C)C4CCC32C)OCCO1` (configuration not stated), the melting point lay in the range of 203 to 207 °C.
